The target of test [1] is T1, Caspase-3 (Homo sapiens, UniProt P42574).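 Further: Dose-response selectivity test against caspase-3 for candidate inhibitors of sentrin-specific proteases (SENPs).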
T1 sequence (P42574 whole entry): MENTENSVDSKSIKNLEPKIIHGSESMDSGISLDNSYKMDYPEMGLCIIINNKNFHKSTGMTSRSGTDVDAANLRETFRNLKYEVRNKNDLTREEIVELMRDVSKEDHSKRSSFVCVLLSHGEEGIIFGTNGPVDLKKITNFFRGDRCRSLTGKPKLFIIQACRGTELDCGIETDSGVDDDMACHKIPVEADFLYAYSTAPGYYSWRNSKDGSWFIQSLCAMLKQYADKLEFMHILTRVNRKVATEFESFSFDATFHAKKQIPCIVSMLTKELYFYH
Format: functional.

Test [2] has as its target T2, Sentrin-specific protease 7 (Homo sapiens, UniProt Q9BQF6).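 Further: Luminescence-based dose-response confirmation of ultra-high-throughput screening hits, measuring inhibition of SENP7.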
T2 sequence (Q9BQF6 whole entry): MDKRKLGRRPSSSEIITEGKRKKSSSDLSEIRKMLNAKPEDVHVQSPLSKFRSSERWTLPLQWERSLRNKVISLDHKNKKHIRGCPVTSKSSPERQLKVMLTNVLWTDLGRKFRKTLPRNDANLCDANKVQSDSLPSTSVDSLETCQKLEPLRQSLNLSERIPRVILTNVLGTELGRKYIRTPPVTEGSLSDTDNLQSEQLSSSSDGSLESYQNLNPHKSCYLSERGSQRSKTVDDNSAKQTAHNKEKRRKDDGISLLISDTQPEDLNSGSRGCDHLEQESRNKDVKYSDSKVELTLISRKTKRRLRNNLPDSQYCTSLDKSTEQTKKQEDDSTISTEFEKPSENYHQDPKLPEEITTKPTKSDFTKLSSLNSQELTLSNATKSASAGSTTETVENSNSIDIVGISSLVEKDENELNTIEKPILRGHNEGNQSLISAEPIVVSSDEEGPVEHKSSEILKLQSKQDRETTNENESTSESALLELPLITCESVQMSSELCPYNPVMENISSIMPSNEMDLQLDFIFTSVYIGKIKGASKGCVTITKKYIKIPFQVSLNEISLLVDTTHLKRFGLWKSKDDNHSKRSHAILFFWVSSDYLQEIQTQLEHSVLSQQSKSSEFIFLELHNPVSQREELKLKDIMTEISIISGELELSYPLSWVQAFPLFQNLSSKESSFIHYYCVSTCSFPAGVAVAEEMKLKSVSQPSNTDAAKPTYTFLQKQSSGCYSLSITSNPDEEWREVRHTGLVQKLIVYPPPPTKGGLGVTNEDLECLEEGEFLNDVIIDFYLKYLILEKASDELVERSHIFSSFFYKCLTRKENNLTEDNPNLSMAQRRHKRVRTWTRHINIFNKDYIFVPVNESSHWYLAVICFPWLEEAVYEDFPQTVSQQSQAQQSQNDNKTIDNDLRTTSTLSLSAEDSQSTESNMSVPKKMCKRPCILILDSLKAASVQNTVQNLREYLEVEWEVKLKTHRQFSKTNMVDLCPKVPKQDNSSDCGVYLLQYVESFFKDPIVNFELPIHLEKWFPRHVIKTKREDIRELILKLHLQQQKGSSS
Format: functional.

The target of test [3] is T3, Sentrin-specific protease 6 (Homo sapiens, UniProt Q9GZR1).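 Further: Luminescence-based dose-response confirmatory assay of SENP6 inhibition, following up an ultra-high-throughput screen.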
T3 sequence (Q9GZR1 whole entry): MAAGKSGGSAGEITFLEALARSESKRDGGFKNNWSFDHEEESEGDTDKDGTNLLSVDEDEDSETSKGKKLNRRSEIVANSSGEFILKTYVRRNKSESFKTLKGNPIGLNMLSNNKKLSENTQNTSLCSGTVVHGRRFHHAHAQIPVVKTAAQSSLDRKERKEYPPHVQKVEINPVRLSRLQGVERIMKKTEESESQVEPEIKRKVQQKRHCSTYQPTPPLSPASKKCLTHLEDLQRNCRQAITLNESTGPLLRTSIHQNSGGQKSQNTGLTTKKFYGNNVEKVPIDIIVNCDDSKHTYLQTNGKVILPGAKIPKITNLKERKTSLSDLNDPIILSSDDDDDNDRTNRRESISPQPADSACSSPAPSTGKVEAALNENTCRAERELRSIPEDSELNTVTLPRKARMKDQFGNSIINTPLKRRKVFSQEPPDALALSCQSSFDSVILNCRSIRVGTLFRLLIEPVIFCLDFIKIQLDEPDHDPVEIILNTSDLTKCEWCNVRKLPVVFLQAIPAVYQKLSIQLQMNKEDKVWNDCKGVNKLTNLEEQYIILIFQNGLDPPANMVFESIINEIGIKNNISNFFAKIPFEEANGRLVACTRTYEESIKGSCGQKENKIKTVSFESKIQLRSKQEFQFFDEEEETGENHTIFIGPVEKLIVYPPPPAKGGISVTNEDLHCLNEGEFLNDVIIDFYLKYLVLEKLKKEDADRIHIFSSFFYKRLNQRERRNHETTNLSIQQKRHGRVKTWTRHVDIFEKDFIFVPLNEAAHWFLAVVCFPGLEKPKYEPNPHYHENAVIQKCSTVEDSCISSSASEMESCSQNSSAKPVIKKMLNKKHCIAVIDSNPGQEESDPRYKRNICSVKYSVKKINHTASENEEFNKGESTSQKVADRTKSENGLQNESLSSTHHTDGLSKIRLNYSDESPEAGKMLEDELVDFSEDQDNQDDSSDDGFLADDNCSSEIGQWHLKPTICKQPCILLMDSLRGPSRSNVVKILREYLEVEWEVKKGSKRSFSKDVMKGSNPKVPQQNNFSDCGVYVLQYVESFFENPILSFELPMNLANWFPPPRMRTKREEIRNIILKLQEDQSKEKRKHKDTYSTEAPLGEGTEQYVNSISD
Format: functional.

The target of test [4] is T4, Sentrin-specific protease 8 (Homo sapiens, UniProt Q96LD8).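 Further: luminescence read-out of SENP8 inhibition, dose-response confirmation following an ultra-high-throughput screen.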
T4 sequence (Q96LD8 whole entry): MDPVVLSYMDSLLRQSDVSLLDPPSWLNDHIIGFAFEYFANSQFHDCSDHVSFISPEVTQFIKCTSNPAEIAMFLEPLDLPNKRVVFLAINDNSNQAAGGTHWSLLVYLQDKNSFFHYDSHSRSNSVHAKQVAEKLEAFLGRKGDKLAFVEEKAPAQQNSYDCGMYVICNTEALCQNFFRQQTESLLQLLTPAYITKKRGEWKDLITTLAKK
The test is classed as functional.

The test system of test [5] is INS1. The test is described as follows: beta cell apoptosis inhibitors, cytokine rescue, dose response, luminescence, retest (AID 449756).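 Further: cell death triggered by IL-1 beta plus TNF-alpha plus IFN-gamma mixture; protective hits raise ATP signal compared with cytokine alone wells.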 The test is classed as functional, cell-based. Particulars: Rattus norvegicus.
The subject of test [6] is BJ. The test is described as follows: cytotoxicity toward BJ-TERT-LT-ST fibroblasts, dose response, cell-based, RAS-independent, luminescence (AID 1935).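 Further: BJ fibroblasts immortalized with TERT plus LT and ST oncogenes.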 To be noted: Homo sapiens. The test is classed as functional.
Test [7] deals with BJ. The test is described as follows: cytotoxicity toward Ras-transformed BJeLR fibroblasts, dose response, cell-based, alamar blue fluorescence, cherrypicked samples (AID 2631).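 Further: confirmatory dose-response assay in RAS-dependent BJ fibroblasts engineered with TERT, LT and ST, with cytotoxicity read by fluorescence.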 The test is classed as functional. To be noted: Homo sapiens. (Resazurin is reduced to fluorescent resorufin, in cell work by metabolically active cells.)
A short description of test [8]: cytotoxicity toward DRD oncogenic fibroblasts, dose response, cell-based, non-viral oncogenic, luminescence (AID 1934). Format: functional. Particulars: Homo sapiens.
In test [9] the test system is BJ. The test is described as follows: cytotoxicity toward BJ-TERT fibroblasts, dose response, cell-based, RAS-independent, luminescence (AID 1933). Particulars: Homo sapiens. Format: functional.
Test [10] relates to BJ. The test is described as follows: cells. The test is classed as functional, cell-based. To be noted: Homo sapiens.
The nature of test [11]: microbe, parasite or virus in culture. To be noted: Mycobacterium tuberculosis. The test is classed as functional.
The test system of test [12] is H4. The test is described as follows: Luminescence Cell-Based Dose Response HTS to Identify Activators of 5'UTR Stem-Loop Driven Prion Protein mRNA Translation in H4 Neuroglioblastoma Cells. [Related pubchem assays: 1829 (Project Summary), 1814 (Primary HTS)]. To be noted: Homo sapiens. Format: functional.
Test [13] has as its system SN12K1. The test is described as follows: cells. The test is classed as functional. To be noted: Homo sapiens.
Test [14] deals with P388/ADR. The test is described as follows: cells. Format: functional. To be noted: Mus musculus.
The subject of test [15] is P388. The test is described as follows: cells. The test is classed as functional. Particulars: Mus musculus.
Test [16] can be described thus: HEp-2 cell cytotoxicity, dose response, cytotoxicity control for RSV inhibitor project, HTS (AID 2410). Format: functional. Particulars: human respiratory syncytial virus.
A short description of test [17]: intracellular Trypanosoma cruzi inhibitors in host cells – cell-based, plate reader, cherry-pick samples, set 3, dose response (AID 651818).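 Further: compounds incubated with infected cells for about four days.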 The test is classed as functional.

Structures are written as SMILES. Active and inactive are the calls of the source.

On to `COc1ccc(NC(=O)c2cccc(Oc3ccccc3)c2)cn1`, for which the IC50 in test [1] was 17.5 µM (active); in test [2] it was 4.98 µM (active); in test [3], 15.6 µM (active); in test [4], 16.4 µM (active).
With `O=C(Cc1ccc(Cl)cc1)c1c[nH]c(C(=O)NCc2cccnc2)c1`, the AC50 in test [5] is 0.907 µM (active). For the same compound, the EC50 in test [6] was > 150 µM (inconclusive); in test [7], 4.8 µM (active); in test [8] it was > 150 µM (not active); in test [9] it was 11.3 µM (inconclusive); in test [10], 6.96 µM (active).
As for `Cc1ccc(NS(=O)(=O)c2ccc(NC(=O)CN(c3cc([N+](=O)[O-])ccc3C)S(C)(=O)=O)cc2)c(C)c1`, the CC50 in test [11] is 4.92 µM (active). In addition, the AC50 in test [5] is 1.49 µM (active). Further, the EC50 is > 150 µM (inconclusive) in test [6]; > 133 µM (inactive) in test [7]; > 75 µM (not active) in test [8]; 39.7 µM (active) in [9]; > 75 µM (not active) in [10].
For the compound `Cc1cccc(NC(=O)COc2ccc(Br)cc2C)n1`, the IC50 in [1] is 13.9 µM (active); in [2], 4.31 µM (active); in test [3], 9.12 µM (active); in test [4] it was > 100 µM (inactive).
Consider `Cn1c(C(=O)Nc2ccc3c(c2)OCO3)cc2sccc21`, for which the IC50 in test [1] is 14.4 µM (active); in test [2] it was 4.52 µM (active); in test [3] it was 16.1 µM (active); in test [4], 19.5 µM (active). In addition, in test [12], the EC50 is 35 µM (active).
For the compound `CN1CCN(P2(=S)Oc3ccc4ccccc4c3-c3c(ccc4ccccc34)O2)CC1`, the GI50 in test [13] is 21.8 µM (inactive); in test [14], 26.2 µM (inactive); in test [15], 24.1 µM (inactive).
The matching figures for `CC(C)=CCC/C(C)=C/CCC1(C)C=Cc2c(c3ccccc3oc2=O)O1` (centres undefined): 16.9 µM (inactive), 20.2 µM (inactive) and 15.2 µM (inactive).
Regarding `COC1=C2CC(C)CC(OC)C(O)C(C)/C=C(\C)C(OC(N)=O)C(OC)/C=C\C=C(/C)C(=O)NC(=C(/C=N/C(C)(C)C)C1=O)C2=O` (centres undefined), the GI50 was 3.64 µM (inactive) in test [13], 3.72 µM (inactive) in [14] and 2.33 µM (inactive) in test [15].
On to `CCOC(=O)/C=C/c1c(C)[nH]c(=O)[nH]c1=O`, for which the GI50 was > 250 µM (inactive) in test [13], 169 µM (inactive) in test [14] and 158 µM (inactive) in test [15].
Take `S=C(N/N=C/c1ccc2ncccc2c1)Nc1ccccc1`: the EC50 in [6] was > 150 µM (inconclusive); in test [7], > 133 µM (inactive); in test [8] it was 14.3 µM (active); in [9], 27.7 µM (active); in test [10], 10.7 µM (active). Further, the CC50 in test [16] was 31.2 µM (active).
As to `C/C(=N\NS(=O)(=O)c1ccccc1)c1ccccc1`, the GI50 in [13], in test [14] and in test [15] was > 100 µM (inactive) in each case.
With `Cc1ccc(S(=O)(=O)Nc2ccc3c(c2)CC(=O)N([C@H](C)CO)C[C@@H](C)[C@H](CN(C)Cc2ccc(C(=O)Nc4ccccc4N)cc2)O3)cc1`, the AC50 in test [17] is 2.94 µM (active).
In the case of `C[C@@H]1CN([C@H](C)CO)C(=O)Cc2cc(NC(=O)c3ccncc3)ccc2O[C@H]1CN(C)Cc1ccc(-c2ccccc2)cc1`, the AC50 in test [17] was 3.08 µM (active).
The same measure, in the same setting: the same measure for `C[C@@H]1CN([C@H](C)CO)C(=O)c2cccc(NC(=O)c3nc4ccccc4s3)c2O[C@H]1CN(C)Cc1ccc(C(=O)Nc2ccccc2N)cc1`: 1.49 µM (active); for `C[C@@H]1CN([C@@H](C)CO)C(=O)c2cc(NC(=O)Nc3ccc(C(F)(F)F)cc3)ccc2O[C@@H]1CN(C)S(=O)(=O)c1ccc(F)cc1`: 4.21 µM (active).
As for `C[C@@H]1CN([C@H](C)CO)C(=O)Cc2cc(NS(=O)(=O)c3ccccc3)ccc2O[C@@H]1CN(C)Cc1ccc(Oc2ccccc2)cc1`, the AC50 in [17] was 4.87 µM (active).
Consider `Nc1cc(Cl)nc(N/N=C/c2c(O)ccc3ccccc23)n1`, for which the IC50 in [1] was 48 µM (active); in [2], 5.83 µM (active); in [3] it was > 100 µM (inactive); in [4], > 100 µM (inactive).
`C=C(C)C(=O)O[C@H]1CC2=C[C@@H](C[C@@]3(C)O[C@@H]3[C@H]3OC(=O)C(=C)[C@@H]31)OC2=O` [ELEPHANTOPIN]: the GI50 in test [13] was 4.73 µM (inactive); in test [14], 0.166 µM (active); in test [15] it was 0.124 µM (active).

Usually IC50 stands for the concentration needed to halve the response being measured. As usually defined, the AC50 is the concentration giving half of the maximal activity seen. One may read the EC50 as the midpoint of the concentration-response curve. As usually defined, the GI50 is the concentration that inhibits growth by half.
